Laboratory results from patent US20180327367A1, “MACROCYCLIC BROAD SPECTRUM ANTIBIOTICS” (priority 2015, published 2018).
Converted amounts (≈) assume the structure as drawn. Read-outs that look alike come from different tables or passages of the source.

Key:
[1] = system: Escherichia coli ATCC 25922; assay: Minimum inhibitory concentration, broth micro-dilution (CLSI), E. coli; assay type: cell-based; details: for MIC: Escherichia coli, ATCC25922, 22 h
[2] = system: Methicillin Resistant Staphylococcus aureus strain USA 300, NRS384; assay: Minimum inhibitory concentration, broth micro-dilution (CLSI), S. aureus; assay type: cell-based; details: for MIC: Staphylococcus aureus, MRSA / NRS 384 / USA300, 22 h
How it was run: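 Ten-point 2-fold series began at 4 μg/mL in protocol 2 and 0.5 μg/mL in protocol 3, in cation-adjusted MHB plus 0.002% Tween-80. Bacteria added to OD600 0.0005 final and incubated at 35° C for 22 hours per CLSI microdilution.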

[3] = system: Escherichia coli MC4100 harboring the IMP4213 (E. coli IMP); assay: microbe, parasite or virus in culture; assay type: cell-based; details: for MIC: Escherichia coli, 22 h
How it was run: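 Colonies grown 20 hours at 35° C were suspended in cation-adjusted Mueller Hinton Broth with 0.002% Tween-80. Cells were then added to 2-fold compound dilutions starting at 4 or 0.5 μg/mL, at OD600 0.0005.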

[4] = biological target: T1, SpsB (Staphylococcus aureus signal peptidase) (Staphylococcus aureus, UniProt P0A070); assay: cell-based; assay type: biochemical; details: SpsB IC50, whole-cell S. aureus (USA300 background, overexpressing SpsB) as SpsB source; fluorogenic peptide substrate, kinetic read 30 min
T1 construct: This assay uses a suspension of Staphylococcus aureus cells as a source of SpsB instead of recombinant SpsB protein; endogenous in cells; host or cells: S. aureus, USA300 background, overexpressing SpsB (whole-cell suspension from frozen pellets)
Description: A kinetic fluorogenic enzyme activity assay was used to assess inhibition of SpsB (Staphylococcus aureus signal peptidase) activity and IC50s were determined. This assay uses a suspension of Staphylococcus aureus cells as a source of SpsB instead of recombinant SpsB protein.
Cell preparation: Luria broth (LB) was inoculated with S. aureus (USA300 background, overexpressing SpsB) and shaken at 37° C. until an OD600 nm of 1.5-2.0 was reached (˜4 hr). The culture was then diluted to an OD600 nm of 1.0 with LB, aliquoted and centrifuged at 10,000×g for 2 mins. The supernatant was removed and the pellet was resuspended in phosphate buffer (1×PBS, 12.5 mg/L MgCl2, 25 mg/L CaCl2, 0.1% Tween-80) to an OD600 nm of 0.5, then centrifuged again at 10,000x g for 2 mins. The supernatant was removed and the pellets were frozen at −20° C.
Test compounds were prepared in DMSO at a concentration of 10 mg/mL. These compound stocks were diluted into DMSO to a concentration of 25 μg/mL and serial 3-fold dilutions were made in DMSO, for a total of 11 compound concentrations. 20 nL of each compound solution was pre-spotted into a white 384-well plate (50 μL/well polypropylene, Nunc) using acoustic fluid transfer (Echo).
Frozen S. aureus pellets were resuspended in assay buffer (1x PBS, 12.5 mg/L MgCl2, 25 mg/L CaCl2, 0.1% Tween-80) to an OD600 nm of 0.05, then mixed 1:1 (v/v) with 20 μM substrate ((Dabcyl)βAla-KPAKAAE(Edans)) in assay buffer, and this solution was added (20 μL/well) to the 384-well plate that had been pre-spotted with compound. Fluorescence intensity was then immediately read kinetically for 30 minutes with 2 minute read intervals to monitor cleavage of the internally quenched peptide substrate (excitation wavelength=340 nm, emission wavelength=490 nm, Molecular Devices Spectramax M5). Reaction rate (slope) was plotted against inhibitor concentration to derive the IC50.

[5] = E. coli ATCC 25922, 35° C., 22 hours, read-out: MIC (μg/mL) E. coli
[6] = MRSA USA 300 NRS384, 35° C., 22 hours, read-out: MIC (μg/mL) S. aureus
[7] = read-out: MIC (μg/mL) E. coli IMP, E. coli MC4100 IMP4213, increased outer-membrane permeability, 35° C., 22 hours
[8] = read-out: MIC (μg/mL) E. coli, E. coli ATCC 25922, 35° C., 22 hours
[9] = read-out: MIC (μg/mL) S. aureus, MRSA USA 300 NRS384, 35° C., 22 hours

T1 sequence (P0A070 whole entry): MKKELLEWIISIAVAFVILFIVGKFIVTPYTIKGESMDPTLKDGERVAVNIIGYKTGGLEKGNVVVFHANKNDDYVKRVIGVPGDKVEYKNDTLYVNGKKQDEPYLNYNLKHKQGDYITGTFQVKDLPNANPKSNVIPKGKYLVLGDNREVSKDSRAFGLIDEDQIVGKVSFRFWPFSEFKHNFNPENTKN

SMILES	MIC [1, 5] [µg/mL]	MIC [2, 6] [µg/mL]	MIC [3, 7] [µg/mL]	IC50 [4] [nM]	also measured
CCC(C)(C)c1ccc(-c2ncc(C(=O)N[C@@H](CCN)C(=O)N(C)[C@@H]3C(=O)N[C@@H](C)C(=O)N[C@H](C(=O)NCC#N)Cc4ccc(OCCN)c(c4)-c4cc3ccc4OCCN)c(C)n2)cc1 [Compound 183]	0.13 (≈ 0.144 µM)	0.063 (≈ 0.0697 µM)	0.0059 (≈ 0.00653 µM)	0.62	–
CCCCCCCCc1ccc(C(=O)N[C@@H](CCN)C(=O)N(C)[C@@H]2C(=O)N[C@@H](C)C(=O)N[C@H](C(=O)NCC#N)Cc3ccc(OCCN)c(c3)-c3cc2ccc3OCCN)c(SC)c1 [Compound 185]	0.75 (≈ 0.833 µM)	0.19 (≈ 0.211 µM)	0.094 (≈ 0.104 µM)	0.91	–
CCCCCCCc1cc(C)c(C(=O)N[C@@H](CCN)C(=O)N(C)[C@@H]2C(=O)N[C@@H](C)C(=O)N[C@H](C(=O)NCC#N)Cc3ccc(OCCN)c(c3)-c3cc2ccc3OCCN)cc1F [Compound 203]	0.13 (≈ 0.149 µM)	0.031 (≈ 0.0355 µM)	0.012 (≈ 0.0138 µM)	0.72	–
Cc1nc(Oc2ccc(C(C)(C)C)cc2)ncc1C(=O)N[C@@H](CCN)C(=O)N(C)[C@@H]1C(=O)N[C@@H](C)C(=O)N[C@H](C(=O)NCC#N)Cc2ccc(OCCN)c(c2)-c2cc1ccc2OCCN [Compound 305]	1 (≈ 1.1 µM)	0.063 (≈ 0.0695 µM)	0.016 (≈ 0.0177 µM)	0.73	–
Cc1cc(OCC2CCCCC2)ccc1C(=O)N[C@@H](CCN)C(=O)N(C)[C@@H]1C(=O)N[C@@H](C)C(=O)N[C@H](C(=O)NCC#N)Cc2ccc(OCCN)c(c2)-c2cc1ccc2OCCN [Compound 275]	0.38 (≈ 0.438 µM)	0.063 (≈ 0.0726 µM)	0.014 (≈ 0.0161 µM)	0.55	–
C[C@@H]1NC(=O)[C@@H](N(C)C(=O)[C@H](CCCCN)NC(=O)c2ccc(-c3ccc(Cl)cc3)cc2)c2ccc(OCCN)c(c2)-c2cc(ccc2O)C[C@@H](C(=O)NCC#N)NC1=O [Compound 318]	–	–	–	0.8	–
CCCCc1ccc(-c2ccc(C(=O)N[C@@H](CN)C(=O)N(C)[C@@H]3C(=O)N[C@@H](C)C(=O)N[C@H](C(=O)N[C@@H](C)C#N)Cc4ccc(OCCN)c(c4)-c4cc3ccc4OCCN)cc2)cc1 [Compound 340]	0.75 (≈ 0.858 µM)	–	< 0.063	0.69	–
CCCCCc1ncc(C(=O)N[C@@H](CCN)C(=O)N(C)[C@@H]2C(=O)N[C@@H](C)C(=O)N[C@H](C(=O)NCC#N)Cc3ccc(OCCN)c(c3)-c3cc2ccc3OCCN)c(C)n1 [Compound 200]	4 (≈ 4.83 µM)	1 (≈ 1.21 µM)	–	2.8	–
CCCCCCCCc1ccc(C(=O)N[C@@H](CCN)C(=O)N(C)[C@@H]2C(=O)N[C@@H](C)C(=O)N[C@H](C(=O)NCC#N)Cc3ccc(OCCN)c(c3)-c3cc2ccc3OCCN)c(CCC(=O)O)c1 [Compound 447]	2 (≈ 2.16 µM)	0.13 (≈ 0.14 µM)	0.012 (≈ 0.013 µM)	–	–
CCCCCCc1ccc(C(=O)N2CCC(N)C[C@H]2C(=O)N(C)[C@@H]2C(=O)N[C@@H](C)C(=O)N[C@H](C(=O)NCC#N)Cc3ccc(OCCN)c(c3)-c3cc2ccc3OCCN)c(C)c1 (stereo partly drawn) [Compound 526-3]	3 (≈ 3.46 µM)	0.063 (≈ 0.0727 µM)	0.031 (≈ 0.0358 µM)	–	–
CCCCCCCCc1ccc(C(=O)N[C@@H](CCN)C(=O)N(C)[C@@H]2C(=O)N[C@@H](C)C(=O)N[C@H](C(=O)NCC#N)Cc3ccc(OCCN)c(c3)-c3cc2ccc3OCCN)c(Br)c1 [Compound 211]	0.11 (≈ 0.118 µM)	0.063 (≈ 0.0675 µM)	0.055 (≈ 0.059 µM)	–	–
CCCCc1cccc(C(=O)N[C@@H](CCCN)C(=O)N(C)[C@@H]2C(=O)N[C@@H](C)C(=O)N[C@H](C(=O)NCC#N)Cc3ccc(OCCN)c(c3)-c3cc2ccc3OCCN)c1C [Compound 206]	16 (≈ 19.4 µM)	0.38 (≈ 0.46 µM)	0.094 (≈ 0.114 µM)	–	–
Cc1cc(Oc2ccc(C(C)(C)C)cc2)ccc1C(=O)N[C@@H](CCN)C(=O)N(C)[C@@H]1C(=O)N[C@@H](C)C(=O)N[C@H](C(=O)NCC#N)Cc2ccc(OCCN)c(c2)-c2cc1ccc2OCCN [Compound 302]	–	–	–	0.79	MIC [1, 8]: 0.25 µg/mL (≈ 0.277 µM); MIC [2, 9]: 0.031 µg/mL (≈ 0.0343 µM)
CCCCCCc1ccc(S(=O)(=O)N[C@@H](CCN)C(=O)N(C)[C@@H]2C(=O)N[C@@H](C)C(=O)N[C@H](C(=O)NCC#N)Cc3ccc(OCCN)c(c3)-c3cc2ccc3OCCN)c(C)c1 [Compound 347]	–	–	0.063 (≈ 0.0719 µM)	–	MIC [1, 8]: 8 µg/mL (≈ 9.13 µM); MIC [2, 9]: 0.063 µg/mL (≈ 0.0719 µM)
Cc1nc(-c2ccc(CC(C)C)cc2)ccc1C(=O)N[C@@H](CCN)C(=O)N(C)[C@@H]1C(=O)N[C@@H](C)C(=O)N[C@H](C(=O)NCC#N)Cc2ccc(OCCN)c(c2)-c2cc1ccc2OCCN [Compound 169]	0.13 (≈ 0.146 µM)	0.023 (≈ 0.0259 µM)	0.0078 (≈ 0.00877 µM)	–	–
CCCCCCCCCCCC(=O)N[C@@H](CO)C(=O)N(C)[C@@H]1C(=O)N[C@@H](C)C(=O)N[C@H](C(=O)N[C@H](C#N)CC)Cc2ccc(OCCN)c(c2)-c2cc1ccc2OCCN [Compound 419]	–	–	–	–	MIC ([1]; read-out: MIC (μg/mL) E. coli): 32 µg/mL (≈ 38.3 µM); MIC ([2]; read-out: MIC (μg/mL) S. aureus): 4 µg/mL (≈ 4.79 µM); MIC ([3]; read-out: MIC (μg/mL) E. coli IMP): 0.75 µg/mL (≈ 0.898 µM)
CCCCCCCCCC(=O)NCCC(=O)NCCC(=O)N[C@@H](CCN)C(=O)N(C)[C@@H]1C(=O)N[C@@H](C)C(=O)N[C@H](C(=O)NCC#N)Cc2ccc(OCCN)c(c2)-c2cc1ccc2OCCN [Compound 376]	> 64	0.5 (≈ 0.535 µM)	2.3 (≈ 2.46 µM)	–	–
CCCCCCCc1ccc(C(=O)NC(CCNC)C(=O)N(C)[C@@H]2C(=O)N[C@@H](C)C(=O)N[C@H](C(=O)NCC#N)Cc3ccc(OCCN)c(c3)-c3cc2ccc3OCCN)c(C)c1 (single isomer, unassigned) [Compound 490-P2]	–	–	–	–	MIC (μg/mL) E. coli ([1]; E. coli ATCC 25922, 35° C., 22 hours): 8 µg/mL (≈ 9.22 µM); MIC (μg/mL) S. aureus ([2]; MRSA USA 300 NRS384, 35° C., 22 hours): >0.50 µg/mL; MIC (μg/mL) E. coli IMP ([3]; E. coli MC4100 IMP4213, increased outer-membrane permeability, 35° C., 22 hours): >0.13 µg/mL
CCCCc1ccc(C(=O)N(C)[C@@H](CCN)C(=O)N(C)[C@@H]2C(=O)N[C@@H](C)C(=O)N[C@H](C(=O)NCC#N)Cc3ccc(OCCN)c(c3)-c3cc2ccc3OCCN)c(C)c1 [Compound 397]	64 (≈ 77.5 µM)	3 (≈ 3.63 µM)	0.38 (≈ 0.46 µM)	–	–
CCCCCCOCc1ccc(C(=O)N[C@@H](CCN)C(=O)N(C)[C@@H]2C(=O)N[C@@H](C)C(=O)N[C@H](C(=O)NCC#N)Cc3ccc(OCCN)c(c3)-c3cc2ccc3OCCN)c(Cl)c1 [Compound 297]	1 (≈ 1.12 µM)	0.063 (≈ 0.0707 µM)	0.0078 (≈ 0.00876 µM)	–	–
C=CCC(C)(C)COc1ccc(C(=O)N[C@@H](CCN)C(=O)N(C)[C@@H]2C(=O)N[C@@H](C)C(=O)N[C@H](C(=O)NCC#N)Cc3ccc(OCCN)c(c3)-c3cc2ccc3OCCN)c(C)c1 [Compound 285]	0.75 (≈ 0.864 µM)	0.063 (≈ 0.0726 µM)	0.0078 (≈ 0.00899 µM)	–	–
CCCCCCCCc1ccc(C(=O)N[C@@H](CCCN)C(=O)N(C)[C@@H]2C(=O)N[C@@H](C)C(=O)N[C@H](C(=O)NCC#N)Cc3ccc(OC)c(c3)-c3cc2ccc3OC)cc1 [Compound 471]	48 (≈ 59.3 µM)	–	< 0.063	10	–
CCCCCCCCCCNCCS(=O)(=O)N(C)[C@@H]1C(=O)N[C@@H](C)C(=O)N[C@H](C(=O)NCC#N)Cc2ccc(OCCN)c(c2)-c2cc1ccc2OCCN [Compound 351]	> 64	1 (≈ 1.27 µM)	> 4	–	–
Cc1cc(-c2ccc(CC(C)C)nn2)ccc1C(=O)N[C@@H](CCN)C(=O)N(C)[C@@H]1C(=O)N[C@@H](C)C(=O)N[C@H](C(=O)NCC#N)Cc2ccc(OCCN)c(c2)-c2cc1ccc2OCCN [Compound 180]	8 (≈ 8.99 µM)	1 (≈ 1.12 µM)	0.38 (≈ 0.427 µM)	–	–
